Paper PMC7822874, “Chemoprotective antimalarials identified through quantitative high-throughput screening of Plasmodium blood and liver stage parasites” (Scientific Reports, 2021)
Where two headings read alike, the source gives them in different places.

Columns and labels:
[1] = tested on: P. berghei-ANKA-GFP-LucCON liver stage parasites in HepG2-A16-CD81EGFP cells; assay: P. berghei liver stage Pb-Luc assay, Method 1 (UCSD, 1536-well); assay type: cell-based, Plasmodium berghei; conditions: for Max Resp (signal direction of the dose response) / AC50 / Log AC50 (M): Method 1; for Max Resp (signal direction of the dose response): Decrease = decreasing P. berghei viability with dose, Increase = increasing signal, Inactive = no dose response; for activity at 1 µM / activity at 3 µM: 48 h, average of 2 wells on a 1536 well plate
[2] = in vitro; conditions: human, HepG2 cells; n = 1
[3] = in vitro; conditions: human, HepG2-A16-CD81EGFP cells, uninfected
[4] = tested on: Plasmodium falciparum Dd2 asexual blood stage parasites; assay: microbe, parasite or virus in culture; parameters: species or system Plasmodium falciparum Dd2 in human erythrocytes; single determination (one 11-point concentration-response curve); conditions: Plasmodium falciparum, DD2, Erythrocyte, 72 h; read-out: AC50
[5] = tested on: HepG2-A16-CD81EGFP cells; conditions: average of 2 wells
[6] = Hill fit, 50% of maximum activity response, read-out: AC50
[7] = log10 of molar AC50 from Hill fit
[8] = Plasmodium berghei, Hill fit, 50% of maximum activity response, read-out: AC50
[9] = Plasmodium berghei, log10 of molar AC50 from Hill fit, read-out: Log AC50 (converted)
[10] = Plasmodium berghei, 1 uM (compounds provided at 10 mM), column 11, read-out: Pb-Luc (P. berghei liver stage), % of control, lower concentration, first repeat
[11] = Plasmodium berghei, 1 uM (compounds provided at 10 mM), column 12, read-out: Pb-Luc (P. berghei liver stage), % of control, lower concentration, second repeat
[12] = Plasmodium berghei, 3 uM (compounds provided at 10 mM), column 8, read-out: Pb-Luc (P. berghei liver stage), % of control, higher concentration, first repeat
[13] = Plasmodium berghei, 3 uM (compounds provided at 10 mM), column 9, read-out: Pb-Luc (P. berghei liver stage), % of control, higher concentration, second repeat

O=C1c2cc(F)ccc2-n2c1nc1ccccc1c2=O [MLS001216278-01]
Max Resp (signal direction of the dose response) [1]: Decrease
AC50 [1, 6]: 0.004 µM
Log AC50 (M) [1, 7]: -8.400 M
AC50 [1, 8]: 0.00355 µM
AC50 [1, 9]: 0.00355 µM
CC50 at 48 h [2]: 12.2 µM
viability at 66 h [3]: 95.7%
AC50 [4]: 0.119 µM

CC(=O)N(C)C1=C(N2CCOCC2)C(=O)c2ccccc2C1=O [MLS000570886-01]
Max Resp (signal direction of the dose response) [1]: Decrease
AC50 [1, 6]: 1.58 µM
Log AC50 (M) [1, 7]: -5.800 M
AC50 [1, 8]: 1.26 µM
AC50 [1, 9]: 1.26 µM
CC50 at 48 h [2]: 10.9 µM
viability at 66 h [3]: 92.5%
AC50 [4]: 0.841 µM

CCCN(CCC)c1nc(-c2ccccn2)nc2ccccc12 [MLS001165172-01]
activity at 1 µM [1, 10]: 92%
activity at 1 µM [1, 11]: 102%
activity at 3 µM [1, 12]: 8%
activity at 3 µM [1, 13]: 7%
CC50 at 48 h [2]: 9.68 µM
viability at 48 h, 1 µM [3]: 112%
viability at 48 h, 3 µM [3]: 90%
AC50 [4]: 5.31 µM

O=C(CCl)Nc1cccc(-c2cnc3ccccc3n2)c1 [MLS000541295-01]
activity at 1 µM ([1]; Plasmodium berghei, P. berghei liver stage, 1 µM compound treatment (10 mM stocks), replicate 1, normalized, read-out: PbLuc 1uM growth rep1): 128%
activity at 1 µM ([1]; Plasmodium berghei, P. berghei liver stage, 1 µM compound treatment (10 mM stocks), replicate 2, normalized, read-out: PbLuc 1uM growth rep2): 119%
activity at 3 µM ([1]; Plasmodium berghei, P. berghei liver stage, 3 µM compound treatment (10 mM stocks), replicate 1, normalized, read-out: PbLuc 3uM growth rep1): 151%
activity at 3 µM ([1]; Plasmodium berghei, P. berghei liver stage, 3 µM compound treatment (10 mM stocks), replicate 2, normalized, read-out: PbLuc 3uM growth rep2): 185%
CC50 at 48 h [2]: 13.7 µM
AC50 [4]: 6.68 µM
HepG2 1uM growth rep1 ([5]; HepG2, 1 µM compound treatment (10 mM stocks), replicate 1, normalized): 90%
HepG2 1uM growth rep2 ([5]; HepG2, 1 µM compound treatment (10 mM stocks), replicate 2, normalized): 88%
HepG2 3uM growth rep1 ([5]; HepG2, 3 µM compound treatment (10 mM stocks), replicate 1, normalized): 89%
HepG2 3uM growth rep2 ([5]; HepG2, 3 µM compound treatment (10 mM stocks), replicate 2, normalized): 88%

O=C(Nc1nc(-c2ccccn2)cs1)c1cccc(S(=O)(=O)N2CCOCC2)c1 [MLS002161290-01]
activity at 1 µM [1, 10]: 17%
activity at 1 µM [1, 11]: 16%
activity at 3 µM [1, 12]: 7%
activity at 3 µM [1, 13]: 7%
CC50 at 48 h [2]: 9.68 µM
viability at 48 h, 1 µM [3]: 98%
viability at 48 h, 3 µM [3]: 60%
AC50 [4]: 5.96 µM

c1ccc(CCNc2ccnc3cc4ccccc4cc23)cc1 [MLS000717866-01]
Max Resp (signal direction of the dose response) [1]: Decrease
AC50 [1, 6]: 0.501 µM
Log AC50 (M) [1, 7]: -6.300 M
AC50 [1, 8]: 0.398 µM
AC50 [1, 9]: 0.398 µM
CC50 at 48 h [2]: 10.9 µM
viability at 66 h [3]: 93.8%
AC50 [4]: 1.68 µM

N=c1ccn(Cc2ccc(Cl)cc2Cl)cc1 [MLS000554049-01]
Max Resp (signal direction of the dose response) [1]: Inactive
CC50 at 48 h [2]: 19.3 µM
viability at 48 h [3]: 89.2%
viability at 48 h, 1 µM [3]: 89.2%
AC50 [4]: 8.41 µM

O=C1c2ccccc2C(=O)c2[nH]c(=O)[nH]c21 [MLS001173438-01]
Max Resp (signal direction of the dose response) [1]: Decrease
AC50 [1, 8]: 1.58 µM
AC50 [1, 9]: 1.58 µM
CC50 at 48 h [2]: 10.9 µM
viability at 66 h [3]: 95.7%
AC50 [4]: 5.96 µM

c1ccc(CCNc2nc(-c3ccccn3)nc3ccccc23)cc1 [MLS000769840-01]
Max Resp (signal direction of the dose response) [1]: Inactive
CC50 at 48 h [2]: 10.9 µM
viability at 48 h [3]: 96.1%
viability at 48 h, 1 µM [3]: 96.1%
AC50 [4]: 4.73 µM
